Measurements as given in patent US12692301B2, “Methods of improving retina-associated disease outcome using CCR3-inhibitors” (ALKAHEST INC., priority 2020, dated 2026).
Where two headings read alike, the source gives them in different places.

Tests used:
CCR3 [1] = target: T1, CCR3 (Homo sapiens, UniProt P51677); details: assay not stated; from the cited reference; cited from earlier work
T1 sequence (P51677 1-355): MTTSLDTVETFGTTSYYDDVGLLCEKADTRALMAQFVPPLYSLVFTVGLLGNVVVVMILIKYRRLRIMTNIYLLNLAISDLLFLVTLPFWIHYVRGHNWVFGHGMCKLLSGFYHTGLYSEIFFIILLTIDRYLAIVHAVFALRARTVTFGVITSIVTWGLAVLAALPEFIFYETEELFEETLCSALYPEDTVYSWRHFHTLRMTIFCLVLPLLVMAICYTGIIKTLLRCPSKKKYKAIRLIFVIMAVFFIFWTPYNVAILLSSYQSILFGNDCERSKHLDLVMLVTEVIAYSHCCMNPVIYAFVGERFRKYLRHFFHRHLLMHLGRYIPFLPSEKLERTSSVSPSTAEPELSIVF

CCR3 [2] = target: T1, CCR3; details: from the cited reference; read-out: IC50 (chemotaxis); cited from earlier work
CCR3 [3] = target: T1, CCR3; details: from the cited reference; read-out: IC50 (binding); cited from earlier work
CCR3 [4] = target: T1, CCR3; details: from the cited reference; read-out: IC50 (Calcium influx); cited from earlier work
[5] = tested on: human eotaxin-1 induced eosinophil shape change; details: human whole blood; read-out: IC50, antagonism of human eotaxin-1 induced eosinophil shape change; cited from earlier work
[6] = tested on: refractory wet Age-Related Macular Degeneration (wAMD); assay: clinical case, refractory subject eyes: oral Compound 1 followed by IVT anti-VEGF; type: in vivo, human; details: Compound 1 regimen followed by IVT anti-VEGF, summary
Method: Subjects with refractory wet Age-Related Macular Degeneration (wAMD) were administered 400 mg of Compound 1 CCR antagonist orally twice per day (BID) for a total dose of 800 mg per day. The treatment regimen of Compound 1 lasted 6-weeks. Refractory subjects for this 6-week regimen were described as having persistent subretinal fluid, intraretinal fluid, and absence of improvement in visual acuity after at least 3 consecutive (approximately 4-6 weeks apart) IVT anti-VEGF injections. After the end of a clinical trial consisting of 6-weeks of Compound 1 CCR antagonist treatment, and four weeks of clinical trial follow up with no additional treatment, a subject with heavily pre-treated bilateral disease entered back into normal treatment with their physician and was treated or re-treated with α-VEGF agents per physician judgment guided by standard criteria such as new CNV activity on OCT/angiography OCT (angio-OCT or aOCT) or foveal subretinal fluid (SRF)/intra-retinal fluid (IRF) or PED. Different α-VEGF agents (described in FIGS. 4-5, 9-10, 14-15, 19-21 and Tables D and H) were administered by intra-vitreal injection. […] The central retinal thickness (CRT) was measured automatically (software version 9.6). […] Subretinal and intraretinal fluid presence was assessed manually. […] CNV activity signs such as neovascular vasculature seen on OCT angiography were monitored. […]

[7] = tested on: choroidal neovascularization (CNV) secondary to wAMD; assay: clinical cases, naïve subject eyes: oral Compound 1 followed by IVT anti-VEGF; type: in vivo, human
Method: Newly diagnosed subjects with choroidal neovascularization (CNV) secondary to wAMD were administered 400 mg of Compound 1 CCR antagonist orally twice per day (BID) for a total dose of 800 mg per day. The clinical trial treatment regimen included 6 weeks of Compound 1 followed by 4 weeks of safety follow up (weeks 7 and 8 as in office visits and follow up by phone at week 10) with no additional Compound 1 treatment. Subject treatment visits took place once per week where mean changes in BCVA as measured by ETDRS were noted, slit lamp and SD-OCT performed, and intraocular pressure taken. Subjects then returned to routine treatment with their physician post clinical trial and were treated or re-treated with α-VEGF agents per physician judgment guided by standard criteria such as new CNV activity on OCT/angio-OCT (aOCT) or increased foveal subretinal fluid (SRF)/intra-retinal fluid (IRF). Different α-VEGF agents (described in FIGS. 1-3, 6-8, 11-13, and 16-18, 21 and Tables A-C and E-G) were administered by intra-vitreal injection. For aflibercept, 2 mg in 0.05 mL was given per single intravitreal injection. For bevacizumab, 1.25 mg in 0.05 mL was given per single intravitreal injection. For ranibizumab, 0.5 mg in 0.05 mL was given per single intravitreal injection. All OCT tests were performed using REVO NX (Optopol Technology, Poland). A 3-dimensional (3D) scanning protocol covering a 7×7 mm area was used (1024 A-scans×64 tomograms). The central retinal thickness (CRT) was measured automatically (software version 9.6). The detection of the fovea and the accuracy of layers segmentation was checked by the operator. If necessary, the fovea location and the outer retinal boundaries were corrected manually by moving the pointer to the desired position. In such cases, the central macular thickness value was recalculated. Subretinal and intraretinal fluid presence was assessed manually. SRF was defined as a hyporeflective space between retinal pigment epithelium and the sensory retina, whereas IRF as ovoid or round spaces within the retina, with a low reflectivity content. SRF and IRF was distinguished from the outer retinal tubulations (ORTs) and degenerative IRF. The latter were not recognized as a CNV activity sign. CNV activity signs such as neovascular vasculature seen on OCT angiography were monitored. Additionally, lipid exudates and enlargement of RPE elevation were noted.

neovascular (wet) AMD = details: cited from earlier work; for patients with persistent presence of fluid at the retina (OCT or angiography): IVT, after two years of monthly injections
[8] = Patient Case 3, after 6 weeks oral Compound 1, once ranibizumab, subsequently bevacizumab

CN1CCC(c2ccccc2)[C@@H]1COc1cccnc1 (stereo partly drawn)
IC50 (CCR3 [1]): 195 nM

CC(=O)Nc1ccc2nc(SCC(=O)NC3CCN(Cc4ccc(Cl)c(Cl)c4)CC3)sc2c1
IC50 (CCR3 [1]): 1.5 nM

C[C@@H](NC(=O)Nc1cccc(-c2nnnn2C)c1)C(O)CN1CCC[C@@H](Cc2ccc(F)cc2)C1 (stereo partly drawn)
IC50 (CCR3 [2]): 0.038 nM | IC50 (CCR3 [3]): 0.3 nM

CCCN1CCC(Cc2ccc(F)cc2)C[C@@H]1CCCNC(=O)Nc1cccc(C(C)=O)c1 (stereo partly drawn)
IC50 (CCR3 [2]): 19 nM | IC50 (CCR3 [4]): 26 nM | IC50 (CCR3 [3]): 2 nM

NC(=O)c1ccc(CNC(=O)NCC2CN(Cc3ccc(Cl)c(Cl)c3)CCO2)cc1 (stereo not drawn)
IC50 (CCR3 [1]): 10 nM

O=C(NCC1CCCN(C2CCN(Cc3ccc(Cl)c(Cl)c3)CC2)C1)c1cccc2cccnc12 (stereo not drawn)
IC50 (CCR3 [1]): 30 nM

Cc1ccc(C(=O)N[C@@H](Cc2ccc(Cl)cc2)C(=O)N[C@@H](C)C(=O)Nc2ccc(Cl)cc2)c(C)c1
IC50 (CCR3 [1]): 3.5 nM

O=C(Nc1ccccc1[N+](=O)[O-])[C@@H]1CCCN1CNC1CC2CCC(C1)N2Cc1ccc2cc(F)ccc2c1 (stereo partly drawn)
IC50 (CCR3 [1]): 4.9 nM

CC1=C(CC(CCc2ccc([N+](=O)[O-])cc2)C2CCN(C(=O)c3ccncc3)CC2)C(=O)N(c2ccc(F)cc2)C1C (stereo not drawn)
IC50 (CCR3 [1]): 12 nM

Cc1ccc[n+]([O-])c1C(=O)N1CCC(=CC(=O)N[C@@H]2CCN(Cc3ccc4cc(F)ccc4c3)C2)CC1
IC50 (CCR3 [2]): 19.9 nM | IC50 (CCR3 [4]): 5.4 nM | IC50 (CCR3 [3]): 3 nM

Cc1ccc(C(=O)N2CCC(=CC(=O)N[C@@H]3CCN(Cc4ccc5cc(F)ccc5c4)C3)CC2)nn1
IC50 (CCR3 [4]): 6.2 nM

Cc1cc(C(=O)N(C)C)cc(NC(=O)[C@H]2CCC(=O)N2C2CCN(Cc3ccc(Cl)c(C)c3)CC2)n1 [Compound 1]
IC50 [5]: 42.5 ± 43.5 nM | CRT [6]: stabilized | Central retinal pigmental epithelium detachment height [6]: reduced

aflibercept
average anti-VEGF doses required per year ([7]; Patient Case 2, after 6 weeks oral Compound 1): 2.36 doses per year

bevacizumab
average anti-VEGF doses required per year ([7]; Patient Case 1, after 6 weeks oral Compound 1): 0.667 dose per year | average anti-VEGF doses required per year [7, 8]: 1.23 dose per year | patients with persistent presence of fluid at the retina (OCT or angiography) (neovascular (wet) AMD): 67.4%

B1: ranibizumab (antibody, chains of the INN, looked up, V domains shown)
VH: EVQLVESGGGLVQPGGSLRLSCAASGYDFTHYGMNWVRQAPGKGLEWVGWINTYTGEPTYAADFKRRFTFSLDTSKSTAYLQMNSLRAEDTAVYYCAKYPYYYGTSHWYFDVWGQGTLVTVSS
VL: DIQLTQSPSSLSASVGDRVTITCSASQDISNYLNWYQQKPGKAPKVLIYFTSSLHSGVPSRFSGSGSGTDFTLTISSLQPEDFATYYCQQYSTVPWTFGQGTKVEIK
modifications: Fab
notes: anti-VEGF antibody, intravitreal injection
average anti-VEGF doses required per year [7, 8]: 1.23 dose per year | patients with persistent presence of fluid at the retina (OCT or angiography) (neovascular (wet) AMD): 51.5% | additional average letter gain with monthly dosing versus less frequent dosing (neovascular (wet) AMD; nine months after 3 initial monthly doses, FDA label): 1-2 letter | loss of visual acuity benefit, dosing every 3 months compared with continued monthly dosing (neovascular (wet) AMD; over the next 9 months after 4 monthly doses, FDA label): ~5 letter
